Measurements published in patent publication US5189159A, “8a-AZA-8a-homoerythromycin cyclic iminoethers” (Merck & Co., Inc., priority 1992, dated 1993).
In brackets after ≈: the same amount, converted by molar mass.

Assays:
[1] = tested on: Enterococcus faecalis MB 5407; assay: MIC, liquid turbidimetric microtiter method; assay type: cell-based; conditions: MB5407, broth media
Description: (§1) The compounds of formula (II) show antibacterial activity against a range of aerobic Gram positive and negative bacteria, as shown in the following Table. The assay employs a liquid turbidimetric microtiter method for determination of the minimum inhibitory concentration (MIC) in broth media. […] The MIC is generally not an absolute value but rather a concentration range that falls within a two-fold dilution limit. Generally twelve two-fold dilutions of the test compound are employed with the initial concentration set at 128 mcg/ml.

[2] = tested on: Enterococcus faecium MB 5416; assay: MIC, liquid turbidimetric microtiter method; assay type: cell-based; conditions: MB5416, broth media
Description: as §1

Escherichia coli MB 2884 = assay: MIC, liquid turbidimetric microtiter method; assay type: cell-based; conditions: MB2884, broth media
Description: as §1

Escherichia coli MB 4926 = assay: MIC, liquid turbidimetric microtiter method; assay type: cell-based; conditions: MB4926, broth media
Description: as §1

[3] = tested on: Klebsiella pneumoniae MB 4005; assay: MIC, liquid turbidimetric microtiter method; assay type: cell-based; conditions: MB4005, broth media
Description: as §1

[4] = tested on: Pseudomonas stutzeri MB 1231; assay: MIC, liquid turbidimetric microtiter method; assay type: cell-based; conditions: Stutzerimonas stutzeri, MB1231, broth media
Description: as §1

[5] = tested on: Staphylococcus aureus MB 2865; assay: MIC, liquid turbidimetric microtiter method; assay type: cell-based; conditions: MB2865, broth media
Description: as §1

[6] = tested on: Staphylococcus epidermidis MB 5414; assay: MIC, liquid turbidimetric microtiter method; assay type: cell-based; conditions: MB5414, broth media
Description: as §1

[7] = tested on: Staphylococcus haemolyticus MB 5412; assay: MIC, liquid turbidimetric microtiter method; assay type: cell-based; conditions: MB5412, broth media
Description: as §1

[8] = tested on: Steptococcus pneumoniae CL 2883; assay: MIC, liquid turbidimetric microtiter method; assay type: cell-based; conditions: broth media
Description: as §1

[9] = tested on: Streptococcus agalactiae CL 1343; assay: MIC, liquid turbidimetric microtiter method; assay type: cell-based; conditions: CL1343, broth media
Description: as §1

[10] = tested on: Streptococcus pyogenes MB 2874; assay: MIC, liquid turbidimetric microtiter method; assay type: cell-based; conditions: MB2874, broth media
Description: as §1

[11] = tested on: Streptococcus pyogenes MB 5406; assay: MIC, liquid turbidimetric microtiter method; assay type: cell-based; conditions: MB5406, broth media
Description: as §1

[12] = tested on: Streptococcus viridans CL 2943; assay: MIC, liquid turbidimetric microtiter method; assay type: cell-based; conditions: CL2943, broth media
Description: as §1

[13] = tested on: Yersinia enterocoltica CL 1598; assay: MIC, liquid turbidimetric microtiter method; assay type: cell-based; conditions: CL1598, broth media
Description: as §1

[14] = isomerization / stability of 9,12-epoxy isomers; assay type: physicochemical
Description: As previously noted, Beckmann rearrangement of oxime (III) under anhydrous conditions leads to a product mixture comprised of the 6,9- and 9,12-bridged iminoethers (VI) and (VII). The 9,12-bridged product, which is formed by internal trapping of the intermediate nitrilium species by the hydroxyl group at C-12, is initially isolated as a mixture of major and minor forms that are isomeric about the imino double bond. The initial mixture of isomers equilibrates at room temperature, both in solution or on storing as a crude foam, to approximately a 1:1 mixture of isomers. The first-formed, major isomer can be isolated from the mixture by crystallization from nitromethane solution.
A solution of the mixture of 9,12-epoxy isomers in nitromethane (2 mL) deposited a large, crystalline mass on standing at room temperature for several days. The mixture was diluted with nitromethane (10 mL) and filtered to remove the solid portion, which was washed with nitromethane (2 mL) and dried under high vacuum. The white solid thus obtained (0.9 g) was shown by ^1 H NMR spectroscopy to be the major 9,12-epoxy isomer which is initially formed in the Beckmann rearrangement reaction.

| SMILES | MIC [1] [µg/mL] | MIC [2] [µg/mL] | MIC (Escherichia coli MB 2884) [µg/mL] | MIC (Escherichia coli MB 4926) [µg/mL] | MIC [3] [µg/mL] | MIC [4] [µg/mL] | MIC [5] [µg/mL] | MIC [6] [µg/mL] | MIC [7] [µg/mL] | MIC [8] [µg/mL] | MIC [9] [µg/mL] | MIC [10] [µg/mL] | MIC [11] [µg/mL] | MIC [12] [µg/mL] | MIC [13] [µg/mL] | solid state stability [14] |
| --- | --- | --- | --- | --- | --- | --- | --- | --- | --- | --- | --- | --- | --- | --- | --- | --- |
| CC[C@H]1OC(=O)[C@H](C)[C@@H](O[C@H]2C[C@@](C)(OC)[C@@H](O)[C@H](C)O2)[C@H](C)[C@@H](O[C@@H]2O[C@H](C)C[C@H](N(C)C)[C@H]2O)[C@](C)(O)C[C@@H](C)N=C2O[C@@]1(C)[C@H](O)[C@H]2C [(VII), 9-Deoxo-12-deoxy-9,12-epoxy-8a,9-didehydro-8a-aza-8a-homoerythromycin A] | > 128 | 16 (≈ 21.9 µM) | 128 (≈ 175 µM) | 32 (≈ 43.8 µM) | > 128 | 2 (≈ 2.74 µM) | 16 (≈ 21.9 µM) | 16 (≈ 21.9 µM) | 32 (≈ 43.8 µM) | 4 (≈ 5.47 µM) | 4 (≈ 5.47 µM) | 2 (≈ 2.74 µM) | > 128 | 4 (≈ 5.47 µM) |  |  |
| CC[C@H]1OC(=O)[C@H](C)[C@@H](O[C@H]2C[C@@](C)(OC)[C@@H](O)[C@H](C)O2)[C@H](C)[C@@H](O[C@@H]2O[C@H](C)C[C@H](N(C)C)[C@H]2O)[C@@]2(C)C[C@@H](C)N=C(O2)[C@H](C)[C@@H](O)[C@]1(C)O [(VI), 9-Deoxo-6-deoxy-6,9-epoxy-8a,9-didehydro-8a-aza-8a-homoerythromycin A] | 32 (≈ 43.8 µM) | 8 (≈ 10.9 µM) | 128 (≈ 175 µM) | 8 (≈ 10.9 µM) | > 128 | 0.5 (≈ 0.684 µM) | 16 (≈ 21.9 µM) | 32 (≈ 43.8 µM) | 8 (≈ 10.9 µM) | 0.5 (≈ 0.684 µM) | 1 (≈ 1.37 µM) | 1 (≈ 1.37 µM) | 128 (≈ 175 µM) | 16 (≈ 21.9 µM) | 128 (≈ 175 µM) |  |
| CC[C@H]1OC(=O)[C@H](C)[C@@H](O[C@H]2C[C@@](C)(OC)[C@@H](O)[C@H](C)O2)[C@H](C)[C@@H](O[C@@H]2O[C@H](C)C[C@H](N(C)C)[C@H]2O)[C@](C)(O)C[C@@H](C)N=C2O[C@@]1(C)[C@H](O)[C@H]2C (single isomer, unassigned; isomer 9) [crystalline isomer, 9-deoxo-12-deoxy-9,12-epoxy-8a,9-didehydro-8a-aza-8a-homoerythromycin A] |  |  |  |  |  |  |  |  |  |  |  |  |  |  |  | stable in the solid state |
